According to ChEMBL document CHEMBL1909294, “Translating clinical findings into knowledge in drug safety evaluation--drug induced liver injury prediction system (DILIps)” (PLoS Comput Biol, 2011):

Assays:
Hepatotoxicity [1] = test system: Hepatotoxicity;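 for HepSE cholelithiasis: hepatic side effect score for cholelithiasis, drawn from the DILIps training data for predicting drug-induced liver injury; call rule not given here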;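 for HepSE elevated liver function tests: hepatic side effect score for raised liver function tests, as recorded in the DILIps training set used for predicting drug-induced liver injury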;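 for HepSE hepatic necrosis: score of hepatic side effects for hepatic necrosis, drawn from the training data of DILIps, a prediction system for drug-induced liver injury; call rule not given here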;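 for HepSE hepatomegaly: hepatic side effect score for hepatomegaly, taken from the training set of the DILIps drug-induced liver injury prediction system; call rule not given here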;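 for HepSE jaundice: Jaundice-related hepatic side-effect score drawn from the training data of the DILIps (drug-induced liver injury prediction system); call rule not given here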;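 for HepSE liver function tests abnormal: hepatic side effect score taken from the DILIps (drug-induced liver injury prediction system) training data, here covering abnormal liver function test findings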
Hepatotoxicity [2] = test system: Hepatotoxicity; remark: listed apart in the source;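 for HepSE cholelithiasis: hepatic side effect score for cholelithiasis, drawn from the DILIps training data for predicting drug-induced liver injury; call rule not given here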;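 for HepSE elevated liver function tests: hepatic side effect score for raised liver function tests, as recorded in the DILIps training set used for predicting drug-induced liver injury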;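 for HepSE hepatic necrosis: score of hepatic side effects for hepatic necrosis, drawn from the training data of DILIps, a prediction system for drug-induced liver injury; call rule not given here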;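 for HepSE hepatomegaly: hepatic side effect score for hepatomegaly, taken from the training set of the DILIps drug-induced liver injury prediction system; call rule not given here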;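 for HepSE jaundice: Jaundice-related hepatic side-effect score drawn from the training data of the DILIps (drug-induced liver injury prediction system); call rule not given here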;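 for HepSE liver function tests abnormal: hepatic side effect score taken from the DILIps (drug-induced liver injury prediction system) training data, here covering abnormal liver function test findings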
Hepatotoxicity [3] = test system: Hepatotoxicity; remark: listed apart in the source;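 for HepSE cholelithiasis: hepatic side effect score for cholelithiasis, drawn from the DILIps training data for predicting drug-induced liver injury; call rule not given here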;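 for HepSE hepatic necrosis: score of hepatic side effects for hepatic necrosis, drawn from the training data of DILIps, a prediction system for drug-induced liver injury; call rule not given here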;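 for HepSE hepatomegaly: hepatic side effect score for hepatomegaly, taken from the training set of the DILIps drug-induced liver injury prediction system; call rule not given here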;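 for HepSE jaundice: Jaundice-related hepatic side-effect score drawn from the training data of the DILIps (drug-induced liver injury prediction system); call rule not given here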;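 for HepSE liver function tests abnormal: hepatic side effect score taken from the DILIps (drug-induced liver injury prediction system) training data, here covering abnormal liver function test findings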
Hepatotoxicity [4] = test system: Hepatotoxicity; remark: listed apart in the source;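 for HepSE cholelithiasis: hepatic side effect score for cholelithiasis, drawn from the DILIps training data for predicting drug-induced liver injury; call rule not given here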;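 for HepSE hepatic necrosis: score of hepatic side effects for hepatic necrosis, drawn from the training data of DILIps, a prediction system for drug-induced liver injury; call rule not given here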;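 for HepSE hepatomegaly: hepatic side effect score for hepatomegaly, taken from the training set of the DILIps drug-induced liver injury prediction system; call rule not given here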;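 for HepSE jaundice: Jaundice-related hepatic side-effect score drawn from the training data of the DILIps (drug-induced liver injury prediction system); call rule not given here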;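 for HepSE liver function tests abnormal: hepatic side effect score taken from the DILIps (drug-induced liver injury prediction system) training data, here covering abnormal liver function test findings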
Hepatotoxicity [5] = test system: Hepatotoxicity; remark: listed apart in the source
Hepatotoxicity [6] = test system: Hepatotoxicity; remark: listed apart in the source
Hepatotoxicity [7] = test system: Hepatotoxicity; remark: listed apart in the source
Hepatotoxicity [8] = test system: Hepatotoxicity; remark: listed apart in the source
Hepatotoxicity [9] = test system: Hepatotoxicity; remark: listed apart in the source
Hepatotoxicity [10] = test system: Hepatotoxicity; remark: listed apart in the source
Hepatotoxicity [11] = test system: Hepatotoxicity; remark: listed apart in the source
Hepatotoxicity [12] = test system: Hepatotoxicity; remark: listed apart in the source
Hepatotoxicity [13] = test system: Hepatotoxicity; remark: listed apart in the source
Hepatotoxicity [14] = test system: Hepatotoxicity; remark: listed apart in the source

| SMILES | HepSE_hepatic necrosis (Hepatotoxicity [1]) | HepSE_bilirubinemia (Hepatotoxicity [2]) | HepSE_cholelithiasis (Hepatotoxicity [3]) | HepSE_jaundice (Hepatotoxicity [4]) | HepSE_hepatomegaly (Hepatotoxicity [5]) | HepSE_liver function tests abnormal (Hepatotoxicity [6]) | HepSE_elevated liver function tests (Hepatotoxicity [7]) | HepSE_hepatitis (Hepatotoxicity [8]) | HepSE_liver fatty (Hepatotoxicity [9]) | HepSE_Combined Scores (Hepatotoxicity [10]) | HepSE_cirrhosis (Hepatotoxicity [11]) | HepSE_liver disease (Hepatotoxicity [12]) | HepSE_cholecystitis (Hepatotoxicity [13]) | HepSE_hepatic failure (Hepatotoxicity [14]) | other results |
| --- | --- | --- | --- | --- | --- | --- | --- | --- | --- | --- | --- | --- | --- | --- | --- |
| CN1CCC[C@H]1c1cccnc1 [NICOTINE] | – | – | – | – | – | – | – | – | – | – | – | – | – | – | HepSE_hepatic necrosis (Hepatotoxicity [1]; Liver): 0; HepSE_bilirubinemia (Hepatotoxicity [2]; Liver): 0; HepSE_cholelithiasis (Hepatotoxicity [3]; Liver): 0; HepSE_jaundice (Hepatotoxicity [4]; Liver): 0; HepSE_hepatomegaly (Hepatotoxicity [5]; Liver): 0; HepSE_liver function tests abnormal (Hepatotoxicity [6]; Liver): 0; HepSE_elevated liver function tests (Hepatotoxicity [7]; Liver): 0; HepSE_hepatitis (Hepatotoxicity [8]; Liver): 0; HepSE_liver fatty (Hepatotoxicity [9]; Liver): 0; HepSE_Combined Scores (Hepatotoxicity [10]; Liver): 0; HepSE_cirrhosis (Hepatotoxicity [11]; Liver): 0; HepSE_liver disease (Hepatotoxicity [12]; Liver): 0; HepSE_cholecystitis (Hepatotoxicity [13]; Liver): 0; HepSE_hepatic failure (Hepatotoxicity [14]; Liver): 0 |
| O=P(O)(O)C(O)(Cc1cccnc1)P(=O)(O)O [RISEDRONIC ACID] | 0 | 0 | 0 | 0 | 0 | 0 | 0 | 0 | 0 | 0 | 0 | 0 | 0 | 0 | – |
| COc1cc(NS(C)(=O)=O)ccc1Nc1c2ccccc2nc2ccccc12 [AMSACRINE] | 0 | 0 | 0 | 1 | 0 | 0 | 0 | 1 | 0 | 3 | 0 | 0 | 0 | 1 | – |
| CC(C)[C@H](N)C(=O)OCC(CO)OCn1cnc2c(=O)nc(N)[nH]c21 (some centres not stated) [VALGANCICLOVIR] | 0 | 0 | 0 | 1 | 0 | 0 | 0 | 1 | 0 | 2 | 0 | 0 | 0 | 0 | – |
| CC(O)(P(=O)(O)O)P(=O)(O)O [ETIDRONIC ACID] | 0 | 0 | 0 | 0 | 0 | 0 | 0 | 0 | 0 | 0 | 0 | 0 | 0 | 0 | – |
| Oc1ccc2c3c1O[C@H]1[C@@H](O)CC[C@@]4(O)[C@@H](C2)N(CC2CCC2)CC[C@]314 [NALBUPHINE] | 0 | 0 | 0 | 0 | 0 | 0 | 0 | 0 | 0 | 0 | 0 | 0 | 0 | 0 | – |
| O=C1CN=C(c2ccccn2)c2cc(Br)ccc2N1 [BROMAZEPAM] | 0 | 0 | 0 | 0 | 0 | 0 | 0 | 0 | 0 | 0 | 0 | 0 | 0 | 0 | – |
| C=CCN1CC[C@]23c4c5ccc(O)c4O[C@H]2C(=O)CC[C@@]3(O)[C@H]1C5 [NALOXONE] | 0 | 0 | 0 | 0 | 0 | 0 | 0 | 0 | 0 | 0 | 0 | 0 | 0 | 0 | – |
| C=C1/C(=C\C=C2/CCC[C@]3(C)[C@@H]([C@H](C)/C=C/[C@@H](O)C4CC4)CC[C@@H]23)C[C@@H](O)C[C@@H]1O [CALCIPOTRIENE] | 0 | 0 | 0 | 0 | 0 | 0 | 0 | 0 | 0 | 0 | 0 | 0 | 0 | 0 | – |
| COc1cc2c(cc1OC)C(=O)C(CC1CCN(Cc3ccccc3)CC1)C2 (configuration not stated) [DONEPEZIL] | 0 | 1 | 1 | 1 | 0 | 1 | 0 | 1 | 0 | 6 | 0 | 0 | 1 | 0 | – |
| CC1(C)O[C@@H]2C[C@H]3[C@@H]4C[C@H](F)C5=CC(=O)C=C[C@]5(C)[C@@]4(F)[C@@H](O)C[C@]3(C)[C@]2(C(=O)CO)O1 [FLUOCINOLONE ACETONIDE] | 0 | 0 | 0 | 0 | 0 | 0 | 0 | 0 | 0 | 0 | 0 | 0 | 0 | 0 | – |
| C[n+]1ccccc1/C=N/O [PRALIDOXIME] | 0 | 0 | 0 | 0 | 0 | 0 | 0 | 0 | 0 | 0 | 0 | 0 | 0 | 0 | – |
| CN(N=O)C(=O)N[C@@H](C=O)[C@@H](O)[C@H](O)[C@H](O)CO [STREPTOZOCIN] | 0 | 0 | 0 | 0 | 0 | 0 | 0 | 0 | 0 | 0 | 0 | 0 | 0 | 0 | – |
